Experimental data from publication PMC6600388 (2019).
Read-outs that look alike come from different tables or passages of the source. Non-standard residues stand in square brackets, D forms with d. Residues, ends and D or L forms follow the SMILES beside them. βAla = NCCC(=O)O

Tested on: human red blood cells
[1] = read-out: RBC Lysis IC50, pH 7.4, pH 7.4
[2] = read-out: RBC Lysis IC50, pH 5.5, pH 5.5

| Molecule | IC50 (red cells of human, pH 5.5) | IC50 (red cells of human, pH 7.4) | IC50 [1] | IC50 [2] |
| --- | --- | --- | --- | --- |
| CC[C@H](C)[C@H](NC(=O)[C@H](CCC(=O)O)NC(=O)CNC(=O)[C@H](Cc1ccccc1)NC(=O)[C@H](CC(C)C)NC(=O)CNC(=O)[C@@H](N)CS)C(=O)N[C@@H](CCC(=O)O)C(=O)N[C@@H](CCC(=O)O)C(=O)N[C@@H](Cc1ccccc1)C(=O)N[C@H](C(=O)N[C@@H](CCC(=O)O)C(=O)N[C@@H](CCC(=O)O)C(=O)NCC(=O)N[C@@H](CC(C)C)C(=O)N[C@@H](CCC(=O)O)C(=O)N[C@@H](CC(N)=O)C(=O)N[C@@H](CC(C)C)C(=O)N[C@H](C(=O)N[C@@H](CC(=O)O)C(=O)N[C@@H](Cc1c[nH]c2ccccc12)C(=O)N[C@@H](Cc1c[nH]c2ccccc12)C(=O)N[C@@H](Cc1ccc(O)cc1)C(=O)NCC(=O)N[C@@H](Cc1ccc(O)cc1)C(=O)NCC(=O)N[C@@H](CCCNC(=N)N)C(=O)N[C@@H](CCCCN)C(=O)N[C@@H](CCCCN)C(=O)N[C@@H](CCCNC(=N)N)C(=O)N[C@@H](CCCNC(=N)N)C(=O)N[C@@H](CCC(N)=O)C(=O)N[C@@H](CCCNC(=N)N)C(=O)N[C@@H](CCCNC(=N)N)C(N)=O)[C@@H](C)CC)[C@@H](C)CC [Peptide 65] (H-CGLFGEIEEFIEEGLENLIDWWYGYGRKKRRQRR-NH2) | 3.15 µM | > 20 µM |  |  |
| N=C(N)NCCC[C@H](NC(=O)[C@H](CCCNC(=N)N)NC(=O)[C@H](CCC(N)=O)NC(=O)[C@H](CCCNC(=N)N)NC(=O)[C@H](CCCNC(=N)N)NC(=O)[C@H](CCCCN)NC(=O)[C@H](CCCCN)NC(=O)[C@H](CCCNC(=N)N)NC(=O)CNC(=O)[C@H](Cc1ccc(O)cc1)NC(=O)[C@@H](N)CS)C(N)=O [Peptide 1, reference compound] (H-CYGRKKRRQRR-NH2) | > 20 µM | > 20 µM |  |  |
| CGLFEAIEGFIENGWEGMIDGWYG(Peg11)YGRKKRRQRR [Peptide 36e] |  |  | > 100 µM |  |
| CC[C@H](C)[C@H](NC(=O)[C@H](Cc1ccccc1)NC(=O)[C@H](CCC(=O)O)NC(=O)[C@H](CCC(=O)O)NC(=O)[C@@H](NC(=O)[C@H](Cc1ccccc1)NC(=O)[C@H](CCC(=O)O)NC(=O)[C@H](Cc1ccccc1)NC(=O)CNC(=O)CCNC(=O)[C@@H](N)CS)[C@@H](C)CC)C(=O)N[C@@H](CCC(=O)O)C(=O)N[C@@H](CC(N)=O)C(=O)NCC(=O)N[C@@H](CC(C)C)C(=O)N[C@@H](CCCCN)C(=O)N[C@@H](CC(N)=O)C(=O)N[C@@H](CC(C)C)C(=O)N[C@H](C(=O)N[C@@H](CC(=O)O)C(=O)N[C@@H](Cc1c[nH]c2ccccc12)C(=O)N[C@@H](Cc1c[nH]c2ccccc12)C(=O)N[C@@H](Cc1ccc(O)cc1)C(=O)NCC(=O)N[C@@H](Cc1ccc(O)cc1)C(=O)NCC(=O)N[C@@H](CCCNC(=N)N)C(=O)N[C@@H](CCCCN)C(=O)N[C@@H](CCCCN)C(=O)N[C@@H](CCCNC(=N)N)C(=O)N[C@@H](CCCNC(=N)N)C(=O)N[C@@H](CCC(N)=O)C(=O)N[C@@H](CCCNC(=N)N)C(=O)N[C@@H](CCCNC(=N)N)C(N)=O)[C@@H](C)CC [Peptide 60] (H-C[βAla]GFEFIEEFIENGLKNLIDWWYGYGRKKRRQRR-NH2) | 1.14 µM | 12.8 µM |  |  |
| CC[C@H](C)[C@H](NC(=O)[C@H](CCC(=O)O)NC(=O)CNC(=O)[C@H](Cc1ccccc1)NC(=O)[C@H](CC(C)C)NC(=O)CNC(=O)[C@@H](N)CS)C(=O)N[C@@H](CCC(=O)O)C(=O)N[C@@H](CCC(=O)O)C(=O)N[C@@H](CC(C)C)C(=O)N[C@H](C(=O)N[C@@H](CCC(=O)O)C(=O)N[C@@H](CCC(=O)O)C(=O)NCC(=O)N[C@@H](CC(C)C)C(=O)N[C@@H](CCC(=O)O)C(=O)N[C@@H](CC(N)=O)C(=O)N[C@@H](CC(C)C)C(=O)N[C@H](C(=O)N[C@@H](CC(=O)O)C(=O)N[C@@H](Cc1c[nH]c2ccccc12)C(=O)N[C@@H](Cc1c[nH]c2ccccc12)C(=O)N[C@@H](Cc1ccc(O)cc1)C(=O)NCC(=O)N[C@@H](Cc1ccc(O)cc1)C(=O)NCC(=O)N[C@@H](CCCNC(=N)N)C(=O)N[C@@H](CCCCN)C(=O)N[C@@H](CCCCN)C(=O)N[C@@H](CCCNC(=N)N)C(=O)N[C@@H](CCCNC(=N)N)C(=O)N[C@@H](CCC(N)=O)C(=O)N[C@@H](CCCNC(=N)N)C(=O)N[C@@H](CCCNC(=N)N)C(N)=O)[C@@H](C)CC)[C@@H](C)CC [Peptide 63] (H-CGLFGEIEELIEEGLENLIDWWYGYGRKKRRQRR-NH2) | 3.6 µM | > 20 µM |  |  |
| CC[C@H](C)[C@H](NC(=O)[C@H](CCC(=O)O)NC(=O)CNC(=O)[C@H](Cc1ccccc1)NC(=O)[C@H](CC(C)C)NC(=O)CNC(=O)[C@@H](N)CS)C(=O)N[C@@H](CCC(=O)O)C(=O)N[C@@H](CCC(=O)O)C(=O)N[C@@H](CC(C)C)C(=O)N[C@H](C(=O)N[C@@H](CCC(=O)O)C(=O)N[C@@H](CCC(=O)O)C(=O)NCC(=O)N[C@@H](CC(C)C)C(=O)N[C@@H](CCCCN)C(=O)N[C@@H](CC(N)=O)C(=O)N[C@@H](CC(C)C)C(=O)N[C@H](C(=O)N[C@@H](CC(=O)O)C(=O)N[C@@H](Cc1c[nH]c2ccccc12)C(=O)N[C@@H](Cc1c[nH]c2ccccc12)C(=O)N[C@@H](Cc1ccc(O)cc1)C(=O)NCC(=O)N[C@@H](Cc1ccc(O)cc1)C(=O)NCC(=O)N[C@@H](Cc1c[nH]cn1)C(=O)N[C@@H](CCCCN)C(=O)N[C@@H](CCCCN)C(=O)N[C@@H](Cc1c[nH]cn1)C(=O)N[C@@H](Cc1c[nH]cn1)C(=O)N[C@@H](CCC(N)=O)C(=O)N[C@@H](Cc1c[nH]cn1)C(=O)N[C@@H](CCCNC(=N)N)C(N)=O)[C@@H](C)CC)[C@@H](C)CC [Peptide 62] (H-CGLFGEIEELIEEGLKNLIDWWYGYGHKKHHQHR-NH2) | 1.28 µM | > 20 µM |  |  |
| CC[C@H](C)[C@H](NC(=O)[C@H](C)NC(=O)[C@H](CCC(=O)O)NC(=O)[C@H](Cc1ccccc1)NC(=O)[C@H](CC(C)C)NC(=O)CNC(=O)[C@@H](N)CS)C(=O)N[C@@H](CCC(=O)O)C(=O)NCC(=O)N[C@@H](Cc1ccccc1)C(=O)N[C@H](C(=O)N[C@@H](CCC(=O)O)C(=O)N[C@@H](CC(N)=O)C(=O)NCC(=O)N[C@@H](Cc1c[nH]c2ccccc12)C(=O)N[C@@H](CCC(=O)O)C(=O)NCC(=O)N[C@@H](CCSC)C(=O)N[C@H](C(=O)N[C@@H](CC(=O)O)C(=O)NCC(=O)N[C@@H](Cc1c[nH]c2ccccc12)C(=O)N[C@@H](Cc1ccc(O)cc1)C(=O)NCC(N)=O)[C@@H](C)CC)[C@@H](C)CC [Peptide 4, reference compound] | 16 µM | > 20 µM |  |  |
| CC[C@H](C)[C@H](NC(=O)[C@H](CC(C)C)NC(=O)[C@H](CCC(=O)O)NC(=O)[C@H](CCC(=O)O)NC(=O)[C@@H](NC(=O)[C@H](CCC(=O)O)NC(=O)[C@H](CCC(=O)O)NC(=O)[C@H](Cc1ccccc1)NC(=O)[C@H](CC(C)C)NC(=O)CNC(=O)[C@@H](N)CS)[C@@H](C)CC)C(=O)N[C@@H](CCC(=O)O)C(=O)N[C@@H](CCC(=O)O)C(=O)NCC(=O)N[C@@H](CC(C)C)C(=O)N[C@@H](CCC(=O)O)C(=O)N[C@@H](CC(N)=O)C(=O)N[C@@H](CC(C)C)C(=O)N[C@H](C(=O)N[C@@H](CC(=O)O)C(=O)N[C@@H](Cc1c[nH]c2ccccc12)C(=O)N[C@@H](Cc1c[nH]c2ccccc12)C(=O)N[C@@H](Cc1ccc(O)cc1)C(=O)NCC(=O)N[C@@H](Cc1ccc(O)cc1)C(=O)NCC(=O)N[C@@H](Cc1c[nH]cn1)C(=O)N[C@@H](CCCCN)C(=O)N[C@@H](CCCCN)C(=O)N[C@@H](Cc1c[nH]cn1)C(=O)N[C@@H](Cc1c[nH]cn1)C(=O)N[C@@H](CCC(N)=O)C(=O)N[C@@H](Cc1c[nH]cn1)C(=O)N[C@@H](CCCNC(=N)N)C(N)=O)[C@@H](C)CC [Peptide 69] (H-CGLFEEIEELIEEGLENLIDWWYGYGHKKHHQHR-NH2) | 8.73 µM | > 20 µM |  |  |
| CC[C@H](C)[C@H](NC(=O)[C@H](C)NC(=O)[C@H](Cc1c[nH]cn1)NC(=O)[C@H](Cc1ccccc1)NC(=O)[C@H](CC(C)C)NC(=O)CNC(=O)[C@@H](N)CS)C(=O)N[C@@H](C)C(=O)N[C@@H](Cc1c[nH]cn1)C(=O)N[C@@H](Cc1ccccc1)C(=O)N[C@H](C(=O)N[C@@H](Cc1c[nH]cn1)C(=O)NCC(=O)NCC(=O)N[C@@H](Cc1c[nH]c2ccccc12)C(=O)N[C@@H](Cc1c[nH]cn1)C(=O)NCC(=O)N[C@@H](CC(C)C)C(=O)N[C@H](C(=O)N[C@@H](Cc1c[nH]cn1)C(=O)NCC(=O)N[C@@H](Cc1c[nH]c2ccccc12)C(=O)N[C@@H](Cc1ccc(O)cc1)C(=O)NCC(=O)N[C@@H](Cc1ccc(O)cc1)C(=O)NCC(=O)N[C@@H](CCCNC(=N)N)C(=O)N[C@@H](CCCCN)C(=O)N[C@@H](CCCCN)C(=O)N[C@@H](CCCNC(=N)N)C(=O)N[C@@H](CCCNC(=N)N)C(=O)N[C@@H](CCC(N)=O)C(=O)N[C@@H](CCCNC(=N)N)C(=O)N[C@@H](CCCNC(=N)N)C(N)=O)[C@@H](C)CC)[C@@H](C)CC [Peptide 7] (H-CGLFHAIAHFIHGGWHGLIHGWYGYGRKKRRQRR-NH2) | 5.9 µM | 0.3 µM |  |  |
| CGLFEAIEGFIENGWEGMIDGWYG(Peg 27)YGRKKRRQRR [Peptide 36f] |  |  | > 100 µM | 28 µM |
| CGLFEAIEGFIENGWEGMIDGWYG(Peg 3)YGRKKRRQRR [Peptide 36c] |  |  | > 10 µM | 1.92 µM |
| CGLFEAIEGFIENGWEGMIDGWYG(Peg 6)YGRKKRRQRR [Peptide 36d] |  |  | > 10 µM | 1.22 µM |
| CC[C@H](C)[C@H](NC(=O)[C@H](CCC(=O)O)NC(=O)CNC(=O)[C@H](Cc1ccccc1)NC(=O)[C@H](CC(C)C)NC(=O)CNC(=O)[C@@H](N)CS)C(=O)N[C@@H](CCC(=O)O)C(=O)N[C@@H](CCC(=O)O)C(=O)N[C@@H](CC(C)C)C(=O)N[C@H](C(=O)N[C@@H](CCC(=O)O)C(=O)N[C@@H](CCC(=O)O)C(=O)NCC(=O)N[C@@H](CC(C)C)C(=O)N[C@@H](CCCCN)C(=O)N[C@@H](CC(N)=O)C(=O)N[C@@H](CC(C)C)C(=O)N[C@H](C(=O)N[C@@H](CC(=O)O)C(=O)N[C@@H](Cc1c[nH]c2ccccc12)C(=O)N[C@@H](Cc1c[nH]c2ccccc12)C(=O)N[C@@H](Cc1ccc(O)cc1)C(=O)NCC(=O)N[C@@H](Cc1ccc(O)cc1)C(=O)NCC(=O)N[C@@H](CCCNC(=N)N)C(=O)N[C@@H](CCCCN)C(=O)N[C@@H](CCCCN)C(=O)N[C@@H](CCCNC(=N)N)C(=O)N[C@@H](CCCNC(=N)N)C(=O)N[C@@H](CCC(N)=O)C(=O)N[C@@H](CCCNC(=N)N)C(=O)N[C@@H](CCCNC(=N)N)C(N)=O)[C@@H](C)CC)[C@@H](C)CC [Peptide 61] (H-CGLFGEIEELIEEGLKNLIDWWYGYGRKKRRQRR-NH2) | 0.97 µM | 8.07 µM |  |  |
